Test results published in ChEMBL document CHEMBL1142481, “Novel 5-HT(1A/1B/1D) receptors antagonists with potent 5-HT reuptake inhibitory activity” (Bioorg Med Chem Lett, 2008).

Experiments:
[1] = biological target: T1, 5-hydroxytryptamine receptor 1A (Homo sapiens, UniProt P08908); experiment: Displacement of [3H]5HT from human cloned 5HT1A receptor expressed in CHO cells; assay type: cell-based
T1 sequence (P08908 whole entry): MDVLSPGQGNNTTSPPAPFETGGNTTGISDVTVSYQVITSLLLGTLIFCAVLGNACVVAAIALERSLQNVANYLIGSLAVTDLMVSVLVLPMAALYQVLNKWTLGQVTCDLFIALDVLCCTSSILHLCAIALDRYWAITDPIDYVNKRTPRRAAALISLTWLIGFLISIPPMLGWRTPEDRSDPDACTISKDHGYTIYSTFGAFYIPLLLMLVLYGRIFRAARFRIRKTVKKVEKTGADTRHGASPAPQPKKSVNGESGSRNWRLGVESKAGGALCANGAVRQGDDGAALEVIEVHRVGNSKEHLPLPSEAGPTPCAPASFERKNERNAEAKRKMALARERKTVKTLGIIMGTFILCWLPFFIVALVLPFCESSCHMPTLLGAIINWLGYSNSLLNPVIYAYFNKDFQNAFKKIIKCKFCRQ

[2] = biological target: T2, 5-hydroxytryptamine receptor 1B (Homo sapiens, UniProt P28222); experiment: Displacement of [3H]5HT from human cloned 5HT1B receptor expressed in CHO cells; assay type: cell-based
T2 sequence (P28222 whole entry): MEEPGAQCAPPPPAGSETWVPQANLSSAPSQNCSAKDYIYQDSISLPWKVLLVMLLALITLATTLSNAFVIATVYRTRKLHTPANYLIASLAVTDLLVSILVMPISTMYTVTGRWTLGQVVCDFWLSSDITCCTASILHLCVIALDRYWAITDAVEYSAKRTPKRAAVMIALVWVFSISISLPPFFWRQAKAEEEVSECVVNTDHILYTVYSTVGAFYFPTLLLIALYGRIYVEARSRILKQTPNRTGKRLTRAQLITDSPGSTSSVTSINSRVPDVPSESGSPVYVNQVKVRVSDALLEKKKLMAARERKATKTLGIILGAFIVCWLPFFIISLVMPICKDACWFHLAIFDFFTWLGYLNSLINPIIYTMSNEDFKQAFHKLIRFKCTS

[3] = biological target: T3, 5-hydroxytryptamine receptor 1D (Homo sapiens, UniProt P28221); experiment: Displacement of [3H]5HT from human cloned 5HT1D receptor expressed in CHO cells; assay type: cell-based
T3 sequence (P28221 whole entry): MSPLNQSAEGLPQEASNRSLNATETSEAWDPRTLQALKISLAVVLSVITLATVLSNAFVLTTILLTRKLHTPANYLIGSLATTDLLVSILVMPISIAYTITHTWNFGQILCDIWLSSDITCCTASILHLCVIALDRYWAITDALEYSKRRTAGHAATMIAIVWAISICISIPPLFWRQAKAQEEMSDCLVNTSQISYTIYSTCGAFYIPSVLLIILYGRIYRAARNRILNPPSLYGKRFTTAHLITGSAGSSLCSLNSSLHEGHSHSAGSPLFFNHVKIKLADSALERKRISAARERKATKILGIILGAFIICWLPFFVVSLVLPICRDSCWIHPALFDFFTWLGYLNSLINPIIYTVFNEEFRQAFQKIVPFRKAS

[4] = biological target: Sodium-dependent serotonin transporter (Rattus norvegicus, UniProt P31652); experiment: Inhibition of [3H]5HT reuptake at SERT in rat cortical synaptosomes; assay type: subcellular, Brain
Chain of Sodium-dependent serotonin transporter (P31652 whole entry): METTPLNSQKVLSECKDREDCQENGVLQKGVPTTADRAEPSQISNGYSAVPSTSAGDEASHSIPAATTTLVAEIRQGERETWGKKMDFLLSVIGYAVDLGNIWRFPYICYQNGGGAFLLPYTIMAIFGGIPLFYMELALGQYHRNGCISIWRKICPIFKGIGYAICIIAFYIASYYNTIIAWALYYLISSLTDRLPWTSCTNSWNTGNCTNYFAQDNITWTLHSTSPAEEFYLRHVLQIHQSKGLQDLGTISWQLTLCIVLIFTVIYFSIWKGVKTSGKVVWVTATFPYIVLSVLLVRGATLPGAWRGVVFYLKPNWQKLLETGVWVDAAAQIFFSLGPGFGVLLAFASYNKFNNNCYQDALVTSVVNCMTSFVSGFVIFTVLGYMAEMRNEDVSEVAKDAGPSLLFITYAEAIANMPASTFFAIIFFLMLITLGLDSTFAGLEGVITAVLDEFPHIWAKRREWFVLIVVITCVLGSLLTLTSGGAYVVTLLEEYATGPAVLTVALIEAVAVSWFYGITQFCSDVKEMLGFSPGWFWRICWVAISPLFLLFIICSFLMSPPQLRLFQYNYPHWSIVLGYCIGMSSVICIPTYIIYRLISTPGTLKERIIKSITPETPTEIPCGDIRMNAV

[5] = biological target: T4, 5-hydroxytryptamine receptor 1A (Homo sapiens) (UniProt P08908); experiment: Intrinsic activity at human cloned 5HT1A receptor expressed in CHO cells; assay type: cell-based
T4 sequence (whole entry): T1 sequence (P08908 whole entry)

[6] = biological target: T2, 5-hydroxytryptamine receptor 1B; experiment: Intrinsic activity at human cloned 5HT1B receptor expressed in CHO cells; assay type: cell-based
[7] = biological target: T3, 5-hydroxytryptamine receptor 1D; experiment: Intrinsic activity at human cloned 5HT1D receptor expressed in CHO cells; assay type: cell-based
[8] = Clearance in rat at 3 mg/kg, po; assay type: ADME, organism-based; design: dose 3 mg/kg, route oral; details: in vivo
[9] = Cmax in rat at 3 mg/kg, po; assay type: ADME, organism-based; design: dose 3 mg/kg, route oral; details: in vivo
[10] = Oral bioavailability in rat at 3 mg/kg; assay type: ADME, organism-based; details: in vivo

Ki [1] [nM] | Ki [2] [nM] | Ki [3] [nM] | Ki [4] [nM] | SMILES | also measured
50.1 | 50.1 | 7.94 | 63.1 | Cc1ccc2c(OCCN3CC(COc4ccc5c(c4)NC(=O)CO5)C3)cccc2n1 | Intrinsic activity [5]: 0.3; Intrinsic activity [6]: 0.5; Intrinsic activity [7]: 0.5
79.4 | 316 | 158 |  | Cc1ccc2c(OCCCN3CC(COc4ccc5c(c4)NC(=O)CO5)C3)cccc2n1 | 
501 | 631 | 251 | 794 | Cc1ccc2c(OCC3CCN(CC(=O)c4ccc5c(c4)NC(=O)CO5)CC3)cccc2n1 | 
100 | 100 | 501 |  | Cc1ccc2c(OCC(C)N3CCC(Cc4ccc5c(c4)NC(=O)CO5)CC3)cccc2n1 (single isomer, unassigned; enantiomer II) | 
50.1 | 39.8 | 251 |  | Cc1ccc2c(OCC(C)N3CCC(Cc4ccc5c(c4)NC(=O)CO5)CC3)cccc2n1 (single isomer, unassigned; enantiomer I) | 
 |  |  |  | Cc1ccc2c(OCCN3CCC(Cc4ccc5c(c4)NC(=O)CO5)CC3)cccc2n1 | Intrinsic activity [5]: 0.1; Intrinsic activity [6]: 0.5; Intrinsic activity [7]: 0.5
631 | > 10000 | 126 | 794 | Cc1ccc2c(N3CCN(Cc4ccc5c(c4)NC(=O)CO5)CC3)cccc2n1 | 
158 |  |  |  | Cc1ccc2c(OCCCN3CC(Oc4ccc5c(c4)NC(=O)CO5)C3)cccc2n1 | 
 |  |  |  | Cc1ccc2c(N3CCN(CCc4ccc5c(c4)NC(=O)CO5)CC3)cccc2n1 | Intrinsic activity [5]: 0.2; Intrinsic activity [6]: 0.1; CL/F [8]: 7 mL/min/kg; Cmax [9]: 360 ng/mL; bioavailability [10]: 72%
> 10000 | > 2510 | 1260 | 200 | Cc1ccc2c(OC3CCN(Cc4ccc5c(c4)NC(=O)CO5)CC3)cccc2n1 | 
> 1580 |  |  |  | Cc1ccc2c(OCC3CCN(Cc4ccc5c(c4)NC(=O)CO5)CC3)cccc2n1 | 
398 | 200 | 79.4 | 251 | Cc1ccc2c(OC(C)CN3CCC(Cc4ccc5c(c4)NC(=O)CO5)CC3)cccc2n1 (racemic) | 
316 | 25.1 | 6.31 | 100 | Cc1ccc2c(OC3CCN(CCc4ccc5c(c4)NC(=O)CO5)CC3)cccc2n1 | 
 |  |  |  | Cc1ccc2c(N3CCN(CCCc4ccc5c(c4)NC(=O)CO5)CC3)cccc2n1 | Intrinsic activity [5]: 0

SMILES | Ki [1] [nM] | Ki [2] [nM] | Ki [3] [nM] | Ki [4] [nM] | also measured
Cc1ccc2c(OC3CCN(CC(=O)c4ccc5c(c4)NC(=O)CO5)CC3)cccc2n1 | > 10000 | > 5010 | 2000 |  | 
